From ChEMBL document CHEMBL4431349, “Synthesis and in vitro evaluation of water-soluble 1,4-diphenethylpiperazine analogs as novel inhibitors of the vesicular monoamine transporter-2” (Bioorg Med Chem Lett, 2016)

How the values were obtained:
[1] = target: Voltage-gated inwardly rectifying potassium channel KCNH2 (Homo sapiens, UniProt Q12809); assay: Inhibition of [3H]dofetilide binding to human ERG expressed in HEK293 cell membranes after 60 mins by liquid scintillation spectrometric analysis
[2] = Thermodynamic solubility of the compound in water at pH 7.4 after 24 hrs by HPLC based shake flask method; assay type: physicochemical; details: read-out: Therm_solubility

Voltage-gated inwardly rectifying potassium channel KCNH2, sequence (Q12809 whole entry): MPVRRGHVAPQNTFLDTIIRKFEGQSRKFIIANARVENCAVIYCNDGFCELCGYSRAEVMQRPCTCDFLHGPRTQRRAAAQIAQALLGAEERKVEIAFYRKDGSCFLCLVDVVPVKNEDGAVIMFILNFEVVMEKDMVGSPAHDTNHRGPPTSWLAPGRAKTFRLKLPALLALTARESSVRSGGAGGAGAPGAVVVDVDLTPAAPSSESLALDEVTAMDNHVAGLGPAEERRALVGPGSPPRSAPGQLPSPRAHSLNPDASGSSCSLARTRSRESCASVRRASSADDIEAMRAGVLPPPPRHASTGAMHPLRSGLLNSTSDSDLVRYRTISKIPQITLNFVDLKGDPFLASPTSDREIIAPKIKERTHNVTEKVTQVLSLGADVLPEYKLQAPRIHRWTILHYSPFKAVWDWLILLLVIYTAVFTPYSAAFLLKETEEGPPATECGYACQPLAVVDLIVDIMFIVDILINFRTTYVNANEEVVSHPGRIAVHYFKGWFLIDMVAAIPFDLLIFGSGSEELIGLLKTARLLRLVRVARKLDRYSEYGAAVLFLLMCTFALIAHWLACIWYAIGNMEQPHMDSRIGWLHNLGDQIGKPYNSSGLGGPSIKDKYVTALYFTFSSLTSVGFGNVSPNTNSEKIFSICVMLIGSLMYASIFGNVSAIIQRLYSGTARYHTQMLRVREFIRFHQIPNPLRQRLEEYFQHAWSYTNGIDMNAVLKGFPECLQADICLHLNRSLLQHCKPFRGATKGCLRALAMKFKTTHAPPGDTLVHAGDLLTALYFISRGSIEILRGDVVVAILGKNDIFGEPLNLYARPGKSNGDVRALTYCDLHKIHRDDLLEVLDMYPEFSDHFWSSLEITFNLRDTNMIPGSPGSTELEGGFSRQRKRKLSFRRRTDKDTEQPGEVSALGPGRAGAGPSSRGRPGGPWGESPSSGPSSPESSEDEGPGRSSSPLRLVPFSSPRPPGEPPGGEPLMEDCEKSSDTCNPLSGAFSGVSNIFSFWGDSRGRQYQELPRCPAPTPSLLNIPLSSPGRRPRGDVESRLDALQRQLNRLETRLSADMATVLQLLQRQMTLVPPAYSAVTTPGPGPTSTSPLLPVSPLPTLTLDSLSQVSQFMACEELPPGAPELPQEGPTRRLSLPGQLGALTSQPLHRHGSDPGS

Structure (SMILES) | Ki [1] [µM] | solubility thermodynamic at 24 h [2] [mg/mL]
Clc1ccccc1CCN1CCN(CCc2ccccc2Cl)CC1 | 1.08 | 
COc1ccccc1CCN1CCN(CCc2ccccc2OC)CC1 | 1.02 | 
COc1ccccc1CCN1CCN(CCc2ccccc2)CC1.Cl.Cl | 2.94 | 33.3
